Measured values as given in PMC9400670, “Establishing the selective phospholipid membrane coordination, permeation and lysis properties for a series of ‘druggable’ supramolecular self-associating antimicrobial amphiphiles” (Chemical Science, 2022).
Read-outs that look alike come from different tables or passages of the source.

Experiments:
[1] = Caco-2 permeability assay; type: in vitro ADME, human; settings: human; for recovery at 120 min, 10 µM: Caco-2, % SSA recovered from the assay after 2 hours; for Papp B→A at 120 min, 10 µM: Caco-2, Caco-2
Description: Section 4: DMPK Methods and Further Discussion […]
Caco-2 Permeability studies: The permeability assay for SSA 1-6 and 10 was performed at Cyprotex Discovery Limited (Macclesfield, UK) and analysed at Cancer Research Horizons. SSA 1-6 and 10 were incubated at a final concentration of 10 uM with human intestinal Caco-2 cells at 37°C, 5% CO2 with a relative humidity of 95%. After 120 minutes the apical compartment inserts and the companion plates were separated, and the apical and basolateral samples were transferred. Incubations were conducted in duplicate and the fluorescent membrane integrity marker; Lucifer Yellow was co-incubated with the SSA compounds at the start of the assay. Compounds of known permeability were used as controls and were within acceptance criteria. Further processing is described in:
Sample preparation and liquid chromatography-mass spectrometry analysis.
Sample preparation and liquid chromatography-mass spectrometry analysis: All samples were centrifuged at 3500 rpm at 4°C for 10 min to precipitate protein and enable sampling of supernatant prior to appropriate dilution for liquid chromatography-mass spectrometry (LC-MS/MS analysis). […]
(1.5 µm, 50 x 2.1 mm) at a temperature of 40°C and a binary mobile phase gradient at a flow rate of […]
0.4 mL/min. […]
For the purpose of apparent permeability determination, samples were analysed using a Waters I-Class ultra-high-performance liquid chromatography (UHPLC) system coupled to a Waters Vion mass spectrometer (Waters, Elstree, UK). Separation of analytes was achieved used an Accucore Vanquish C18+ column (1.5 µm, 50 x 2.1 mm) at a temperature of 40°C and a binary mobile phase gradient at a flow rate of 0.4 mL/min. Initial LC conditions for SSA 1-4 comprised 66% solvent A (0.1% formic acid + 5 mM ammonium acetate in water), 33% solvent B (0.1% formic acid + 5 mM ammonium acetate in methanol); this was ramped to 63% B at 1.8 min and 95% B at 1.9 min, held for 0.5 min and then immediately returned to initial conditions and held for the remaining 0.5 min of the method. Initial LC conditions for SSA 5-10 comprised 54% solvent A (0.1% formic acid + 5 mM ammonium acetate in water), 46% solvent B (0.1% formic acid + 5 mM ammonium acetate in methanol); this was ramped to 67% B at 1.8 min and 95% B at 1.9 min, held for 0.5 min and then immediately returned to initial conditions and held for the remaining 0.5 min of the method.
Sample analysis was by electrospray ionisation in negative ion mode. The capillary voltage was 2.5 kV, desolvation gas was 600°C.
For the purpose of PK determination of SSA 5, samples were analysed using a Waters I-Class ultra-high-performance liquid chromatography (UHPLC) system coupled to a Waters Xevo TQ-XS mass spectrometer. Separation of analytes was achieved using an Accucore Vanquish C18+ column (1.5 µm, 50 x 2.1 mm) at a temperature of 40°C and a binary mobile phase gradient at a flow rate of 0.4 mL/min. Initial LC conditions comprised 54% solvent A (0.1% formic acid + 5 mM ammonium acetate in water), 46% solvent B (0.1% formic acid + 5 mM ammonium acetate in methanol); this was ramped to 67% B at 1.8 min and 95% B at 1.9 min, held for 0.5 min and then immediately returned to initial conditions and held for the remaining 0.5 min of the method. Sample analysis was by electrospray ionisation combined with multiple reaction monitoring in negative ion mode. The […]
Mean blood concentration-time profile: Within these studies SSAs 3 and 5 were dosed at 1 mg/kg, to female CD-1 mice (n=9 per SSA) via an intravenous tail vein bolus dose formulation as solutions in 2 % DMSO/98 % water. Blood taken from the mouse tail vein was extracted by protein precipitation.
SSA concentrations were calculated through UPLC-MS/MS techniques, with tolbutamide as the internal standard. The assay met the acceptance criteria with >7 calibration standards within ± 20% of nominal concentration. The lower limit of quantitation was 2 ng/mL for both compounds. PK […]

PG lipid vesicles = assay: Synthetic phospholipid vesicle membrane binding assay (fluorescence polarisation), PG vesicles; settings: lipid vesicles added to SSA (0.15 mM); n = 3; error = standard error; SSA alone set to 100 mP
Description: For intrinsically fluorescent SSAs 5, 6 and 8–12, FP titration experiments enabled the observation of SSA: phospholipid vesicle interactions. Here, an increase in FP value indicates an increase in the apparent size of the SSA as it interacts with the phospholipid vesicle. […]
Fluorescence polarisation: Lipid films were resuspended in Buffer (150 mM KCl, 10 mM HEPES, pH 7.4, 2 mM EGTA) and subjected to 9 freeze-thaw cycles in liquid nitrogen and extruded 20 times through a 200 nm polycarbonate membrane. Black bottom 96-well plates were prepared by serially diluting desired vesicle solution across the plate, the appropriate SSA solution (100 µL, 0.15 mM) was added to each well to give a total well volume of 200 µL. Fluorescent SSA solutions were set to a FP value of 100 mP. Data were acquired in endpoint mode. […]

[2] = 10 uM, 120 minutes, n = 2 technical repeats, read-out: Papp (B-A)
[3] = in words, read-out: Papp (B-A) class

Row | recovery at 120 min, 10 µM ([1]; read-out: Recovery (A-B)) [%] | recovery at 120 min, 10 µM ([1]; read-out: Recovery (B-A)) [%] | Papp B→A at 120 min, 10 µM [1, 2] [×10⁻⁶ cm/s] | increase in FP, PG (PG lipid vesicles) [mP] | Papp B→A at 120 min, 10 µM [1, 3] [×10⁻⁶ cm/s] | Compound
1 | 97 | 102 | 1.7 |  |  | O=C(NCCCS(=O)(=O)O)Nc1ccc(C(F)(F)F)cc1 [SSA 2]
2 | 59 | 86 | 11 | 40 ± 4 | > 10 | Cc1ccc2nc(-c3ccc(NC(=O)NCS(=O)(=O)O)cc3)sc2c1 [SSA 6]
3 | 79 | 107 | 21 | 43 ± 9 | > 10 | O=C(NCS(=O)(=O)O)Nc1ccccc1-c1nc2ccccc2s1 [SSA 5]
4 |  |  |  | 29 ± 1 |  | O=C(NCS(=O)(=O)O)Nc1ccc(-c2nc3ccccc3s2)cc1 [SSA 8]
5 | 93 | 96 | 2.3 |  |  | O=C(O)CNC(=O)Nc1ccc(C(F)(F)F)cc1 [SSA 4]
6 |  |  |  | 126 ± 5 |  | Cc1ccc2nc(-c3ccc(NC(=S)NCS(=O)(=O)O)cc3)sc2c1 [SSA 12]
7 |  |  |  | 47 ± 1 |  | Cc1ccc2nc(-c3ccc(NC(=O)NCCC(=O)O)cc3)sc2c1 [SSA 9]
8 | 93 | 101 | 5.4 |  |  | O=C(NCS(=O)(=O)O)Nc1ccc(C(F)(F)F)cc1 [SSA 1]
9 | 54 | 95 | 6.7 | 29 ± 2 |  | Cc1ccc2nc(-c3ccc(NC(=O)NCCCS(=O)(=O)O)cc3)sc2c1 [SSA 10]
10 |  |  |  | 209 ± 4 |  | Cc1ccc2nc(-c3ccc(NC(=O)NCC(=O)O)cc3)sc2c1 [SSA 11]
